From paper PMC4829596 (Frontiers in Microbiology, 2016)
≈ marks a conversion by molar mass, not a printed value. Like-named read-outs stand apart in the source and are kept apart here.

Tests used:
HepG2 cells = assay: XTT assay, metabolic active cells; type: cell-based, human
Protocol: (§1) In parallel the % of metabolic cells was measured using the XTT [2,3-Bis-(2-methoxy-4-nitro-5-sulfophenyl)-2H-tetra zolium-5-carboxanilide] assay (Thermo Scientific). Briefly, after treatment with the fungal extract or the different compounds cells were incubated with XTT and phenanzine methosulfate (Thermo Scientific) for 2 h. Absorbance was measured at 450 nm and % of metabolic active cells was calculated versus the control sample (media). As controls we incubated the cells without fungal cultures or compound, and with VPA alone.

Caco2 cells = assay: XTT assay, metabolic active cells; type: cell-based, human; conditions: for % of metabolic active Caco2 cells: XTT
Protocol: as §1

[1] = tested on: MRSA Staphylococcus (S.) aureus B335466; assay: Determination of MIC; type: cell-based
Protocol: (§2) Minimal inhibitory concentrations (MICs) of purified compounds and commercially available standards were assessed against S. aureus, C. albicans, P. aeruginosa, K. pneumoniae, E. coli, ESBL K. pneumoniae, ESBL E. coli and the two MRSA strains (B337919 and B335466). Stock solutions of 5 × 10^6 μg/l of p-hydroxybenzaldehyde, and phenyllactic acid were prepared using water. Stock solutions of 1 × 10^8 μg/l indole-3-carboxylic acid, PAA and indole-3-acetic acid were prepared using methanol and diluted with water (working solution of 5 × 10^6 μg/l). Stocks of 1 × 10^6 μg/l of cFP and cPM were dissolved in water. […] Methanol and water were used as control.

[2] = tested on: MRSA Staphylococcus (S.) aureus B337919; assay: Determination of MIC; type: cell-based
Protocol: as §2

K. pneumoniae = assay: Determination of MIC; type: cell-based, Klebsiella pneumoniae; conditions: K. pneumoniae; for MIC: Klebsiella pneumoniae, read-out: MIC
Protocol: as §2

ESBL K. pneumoniae = assay: Determination of MIC; type: cell-based, Klebsiella pneumoniae; conditions: ESBL K. pneumoniae; for MIC: Klebsiella pneumoniae, read-out: MIC
Protocol: as §2

S. aureus = assay: Determination of MIC; type: cell-based, Staphylococcus aureus; conditions: S. aureus; for MIC: Staphylococcus aureus, read-out: MIC
Protocol: as §2

E. coli = assay: Determination of MIC; type: cell-based, Escherichia coli; conditions: E. coli; for MIC: Escherichia coli, read-out: MIC
Protocol: as §2

ESBL E. coli = assay: Determination of MIC; type: cell-based, Escherichia coli; conditions: ESBL E. coli; for MIC: Escherichia coli, read-out: MIC
Protocol: as §2

P. aeruginosa = assay: Determination of MIC; type: cell-based, Pseudomonas aeruginosa; conditions: for MIC: Pseudomonas aeruginosa
Protocol: as §2

[3] = tested on: human intestinal epithelial (Caco2) cells; assay: Cytotoxicity assay, lactate dehydrogenase release; type: cell-based; conditions: for dead cells: at the determined MIC concentrations, Caco2; for % of living Caco2 cells: 24 h, LDH
Protocol: (§3) Cytotoxicity of the fungal extract and the identified compounds was determined measuring lactate dehydrogenase release using human intestinal epithelial (Caco2) and human hepatocytic (HepG2) cells. […] Cells were seeded into 96-well plates (5 × 10^4 cells per well) and incubated until a confluent cell layer had developed. After discarding of the media cells were incubated with 50 μl of media and 50 μl of fungal extract or compound (final concentration: PAA 2 × 10^6 μg/l, 4FP 2 × 10^6 μg/l, ICA 2 × 10^6 μg/l, IAA 2 × 10^5 μg/l, PLA 2 × 10^6 μg/l, cPM 2 × 10^6μg/l and cFP 2 × 10^6 μg/l) for 24 h at 37°C. […] LDH release was measured according to the manufacturer’s protocol (Sigma–Aldrich, USA).

[4] = tested on: human hepatocytic (HepG2) cells; assay: Cytotoxicity assay, lactate dehydrogenase release; type: cell-based; conditions: for % of living HepG2 cells: 24 h, LDH
Protocol: as §3

Caco2 and HepG2 cells = type: cell-based; conditions: at the determined MIC concentrations; range over compounds and cell lines
Protocol: as §3

C. albicans = assay: Determination of MIC; type: cell-based, Candida albicans; conditions: C. albicans; for MIC: Candida albicans, read-out: MIC
Protocol: as §2

[5] = tested on: acetylation of histone H3 K9 and K14; assay: Histone posttranslational modifications by Western blot; type: cell-based, Doratomyces microsporus; conditions: VPA-treated D. microsporus cultures, 24, 48, 72 h
Protocol: Mycelia from the D. microsporus cultures were harvested after 24, 48, and 72 h by filtration and frozen in liquid nitrogen. Histones were extracted under acidic conditions as described by [Honda and Selker (2008)]. Samples were suspended in Laemmli’s SDS sample buffer and quantified with Pierce BCA Protein Assay (Thermo Scientific). Fifteen microgram of purified histones were separated on 15% SDS-PAGE gel and subsequently transferred to nitrocellulose membrane (GE Healthcare) by electroblotting. Histone H3 acetylation (H3Ac) was detected with primary antibody specific to H3Ac (Millipore, 06-599). As a loading control histone H3 C-terminus was detected with anti H3 C-terminus antibody (Abcam, 1791). The primary antibodies were identified with anti- rabbit (Sigma–Aldrich, A0545) horseradish peroxidase (HRP) conjugated secondary antibody. Chemiluminescence was detected with Clarity^TM ECL Western Substrate and ChemiDoc^TM XRS (Bio- Rad).

higher fungi = tested on: higher fungi; design: method as in Strom et al., 2002; conditions: ref Strom et al., 2002; cited from earlier work
[6] = tested on: Bacillus subtilis, S. aureus and Micrococcus luteus; design: method as in Jayatilake et al., 1996; Thomas et al., 2010; conditions: ref Jayatilake et al., 1996; Thomas et al., 2010; cited from earlier work
[7] = lowest concentration at which the inhibitory effect was detectable

Row | Structure (SMILES) | % of metabolic active HepG2 cells (HepG2 cells; compound 2mg/ml) [%] | % of metabolic active Caco2 cells (Caco2 cells; compound 2mg/ml) [%] | MIC ([1]; MRSA 335, read-out: MIC) [µg/mL] | MIC ([2]; MRSA 337, read-out: MIC) [µg/mL] | MIC (K. pneumoniae) [µg/mL] | MIC (ESBL K. pneumoniae) [µg/mL] | MIC (S. aureus) [µg/mL] | MIC (E. coli) [µg/mL] | MIC (ESBL E. coli) [µg/mL] | MIC (P. aeruginosa) [µg/mL] | dead cells [3] [%] | % of living Caco2 cells ([3]; compound 2mg/ml) [%] | % of living HepG2 cells ([4]; compound 2mg/ml) [%] | dead cells (Caco2 and HepG2 cells) | MIC (C. albicans) [µg/mL] | other results
1 | O=C(O)C(O)Cc1ccccc1 (centres unmarked) [PLA, phenyllactic acid] | 66.01 | 41.48 | 2000 (≈ 12 mM) | 2000 (≈ 12 mM) | 2500 (≈ 15 mM) | 5000 (≈ 30.1 mM) | 2000 (≈ 12 mM) | 2500 (≈ 15 mM) | 5000 (≈ 30.1 mM) | 5000 (≈ 30.1 mM) | 19.7 | 19.65 | 54.63 | – | – | dead cells ([4]; at the determined MIC concentrations, HepG2): 54.63%
2 | O=C(O)c1c[nH]c2ccccc12 [ICA, indole-3-carboxylic acid] | 122.3 | 97.59 | 2000 (≈ 12.4 mM) | 2000 (≈ 12.4 mM) | 2000 (≈ 12.4 mM) | 2000 (≈ 12.4 mM) | 2000 (≈ 12.4 mM) | 1000 (≈ 6.21 mM) | 1000 (≈ 6.21 mM) | 2000 (≈ 12.4 mM) | – | 8.36 | 4.86 | 3.99–8.61% | – | –
3 | O=Cc1ccc(O)cc1 [4FP, p-hydroxybenzaldehyde] | 57.33 | 32.06 | 2500 (≈ 20.5 mM) | 2500 (≈ 20.5 mM) | 2500 (≈ 20.5 mM) | 2500 (≈ 20.5 mM) | 2000 (≈ 16.4 mM) | 2500 (≈ 20.5 mM) | 2500 (≈ 20.5 mM) | 2500 (≈ 20.5 mM) | 25.9 | 25.94 | 7.86 | – | 1000 (≈ 8.19 mM) | metabolic active cells (Caco2 cells; human): 57.3%
4 | CCCC(CCC)C(=O)O [VPA, valproic acid] | – | – | – | – | – | – | – | – | – | – | – | – | – | – | – | acetylation of the N-terminal lysines of histone 3 compared to the untreated control culture [5]: could not detect any significant increase in acetylation
5 | O=C1NC(Cc2ccccc2)C(=O)N2CCCC12 [cFP, cyclo-(L-phenylalanine-L-proline)] | 116.63 | 106.66 | – | – | – | – | – | – | – | – | – | 4.28 | 5.11 | 3.99–8.61% | – | Inhibitory concentration ([1]; lowest concentration at which the inhibitory effect was detectable, MRSA 335): 2 g/L; Inhibitory concentration ([2]; lowest concentration at which the inhibitory effect was detectable, MRSA 337): 2 g/L; Inhibitory concentration (K. pneumoniae; [7]): 3 g/L; Inhibitory concentration (ESBL K. pneumoniae; [7]): 3 g/L; MIC (higher fungi): 20 g/L (≈ 81.9 mM); Inhibitory concentration (S. aureus; [7]): 2 g/L; antimicrobial activity [6]: no antimicrobial activity; Inhibitory concentration (C. albicans; [7]): 2.5 g/L; Inhibitory concentration (E. coli; [7]): 5 g/L; Inhibitory concentration (ESBL E. coli; [7]): 5 g/L; Inhibitory concentration (P. aeruginosa; [7]): 5 g/L
6 | O=C(O)Cc1c[nH]c2ccccc12 [IAA, indole-3-acetic acid] | – | – | – | – | 400 (≈ 2.28 mM) | 2000 (≈ 11.4 mM) | 400 (≈ 2.28 mM) | 1750 (≈ 9.99 mM) | 1750 (≈ 9.99 mM) | 2000 (≈ 11.4 mM) | – | – | – | – | 400 (≈ 2.28 mM) | % of metabolic active HepG2 cells (HepG2 cells; compound 0.2mg/ml): 108.28%; % of metabolic active Caco2 cells (Caco2 cells; compound 0.2mg/ml): 103.64%; MIC ([1]; MRSA 335): 400 µg/mL (≈ 2.28 mM); MIC ([1]; MRSA strain B335466, read-out: MIC): 400 µg/mL (≈ 2.28 mM); MIC ([2]; MRSA 337): 200 µg/mL (≈ 1.14 mM); MIC ([2]; MRSA strain B337919, read-out: MIC): 200 µg/mL (≈ 1.14 mM); % of living Caco2 cells ([3]; compound 0.2mg/ml): 8.61%; % of living HepG2 cells ([4]; compound 0.2mg/ml): 7.27 ± 1.77%
